Results: patent US20220274947A1, “NOVEL HETEROARYL-TRIAZOLE COMPOUNDS AS PESTICIDES” (Bayer Aktiengesellschaft, priority 2019, published 2022)

Key:
Type in all cases: in vivo
[1] = system: Ctenocephalides felis; assay: Ctenocephalides felis oral test (CTECFE Oral); conditions: 48 h, read-out: activity (mortality)
In short: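 Percent mortality was recorded 2 days after roughly 20 adult Ctenocephalides felis fed on treated cattle blood. The blood was warmed to 37 °C beneath a parafilm membrane, with the fleas kept at room temperature. Compound was dissolved in DMSO and diluted into the blood to test concentration.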

[2] = system: Myzus persicae; assay: Myzus persicae oral test; conditions: 120 h, read-out: activity (mortality)
In short: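 Percent mortality was recorded at day 5, where 0% means no aphids killed. Compound prepared from an acetone concentrate diluted in water and combined with IPL41 medium containing sugar was offered to mixed-stage green peach aphids, which sucked it through a parafilm seal.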

[3] = system: Rhipicephalus microplus; assay: Rhipicephalus (Boophilus) microplus in-vitro contact test, larval cattle tick, strain Parkhurst (BOOPMI Cont); conditions: application rate 5 μg/cm^2 (=500 g/ha), tick larvae, after 48 hours, read-out: activity (efficacy: 100% means all larvae are dead or moribund)
In short: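 After 48 h at 27° C. and 85% humidity, percent dead or moribund larvae was scored from negative geotactic behaviour. Larvae (20-50, Parkhurst strain, synthetic pyrethroid-resistant) were exposed in tubes coated with compound from acetone, 900 ppm corresponding to 5 μg/cm^2.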

[4] = system: Nezara viridula; assay: Nezara viridula spray test; conditions: in Hordeum vulgare, 96 h, barley plants, larvae, after 4 days; for mortality at 500 g/ha: application rate 500 g/ha; for mortality at 100 g/ha: application rate 100 g/ha
Procedure: Nezara viridula—Spray Test Solvent: 78.0 parts by weight of acetone • • 1.5 parts by weight of dimethylformamide Emulsifier: alkylarylpolyglycol ether
(§1) To produce a suitable preparation of active compound, 1 part by weight of active compound is mixed with the stated amount of solvent, and the concentrate is diluted with water, containing an emulsifier concentration of 1000 ppm, to the desired concentration. Further test concentrations are prepared by dilution with emulsifier containing water.
Barley plants (Hordeum vulgare) infested with larvae of the southern green stink bug (Nezara viridula) are sprayed with a test solution containing the desired concentration of the active ingredient.
After 4 days mortality in % is determined. 100% means all the stink bugs have been killed; 0% means none of the stink bugs have been killed.

[5] = system: Spodoptera frugiperda; assay: Spodoptera frugiperda spray test; conditions: in Zea mays, 168 h, read-out: activity (mortality)
In short: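 Percent kill of fall armyworm caterpillars was assessed 7 days after infesting dried, treated maize leaf sections. Treatment was a spray of compound in acetone/dimethylformamide, diluted with water containing emulsifier at 1000 ppm.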

[6] = system: Musca domestica strain WHO—N; assay: Musca domestica test (MUSCDO surface treatment & contact assay); conditions: exposure 30 minutes, 24 hours after contact, read-out: efficacy (mortality); for mortality at 20 mg/m2: surface concentration 20 mg/m^2, glazed tile; for mortality at 4 mg/m2: surface concentration 4 mg/m^2, glazed tile
In short: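 Compound dissolved in acetone (2 mg/ml) with 2000 ppm rapeseed oil methyl ester and pipetted onto glazed tile; after acetone evaporation, adult flies exposed to dried surface for 30 minutes. Mortality (%) scored 24 hours after contact.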

[7] = system: Rhipicephalus microplus; assay: Rhipicephalus (Boophilus) microplus injection test (BOOPMI Inj); conditions: 168 h, injection into adult engorged female ticks, egg deposition after 7 days, read-out: activity (efficacy: 100% means all eggs are infertile); for pest or weed control at 0.004 mg: application rate 4 μg/tick; for pest or weed control at 0.02 mg: application rate 20 μg/tick
In short: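 Compound in DMSO, 1 μL, injected abdominally into five adult engorged females, which were then held in a climate chamber. Read-out is egg fertility, scored from deposition at 7 days, with unclear eggs followed to hatching (~42 days); 0% means all eggs fertile, 100% all infertile.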

[8] = system: Diabrotica balteata; assay: Diabrotica balteata spray test; conditions: 168 h, wheat seeds, larvae, after 7 days, read-out: activity (efficacy: 100% means all seedlings have grown up like in the untreated, uninfected control); for pest or weed control at 32 µg/disc, 100 g/ha: application rate 100 g/ha (=32 μg/well); for pest or weed control at 160 µg/disc, 500 g/ha: application rate 500 g/ha (=160 μg/well)
In short: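 Efficacy (%) was scored 7 days after spraying, with 100% meaning growth like the untreated, uninfected control and 0% meaning no seedling grew. Spray solutions of compound in acetone/DMF with emulsifier-containing water went onto 1-day-germinated wheat seeds, and each unit was then infested with 10-20 banded cucumber beetle larvae.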

[9] = system: Rhipicephalus sanguineus; assay: Rhipicephalus sanguineus in-vitro contact test, adult brown dog ticks (RHIPSA Cont); conditions: 48 h, after 48 hours, read-out: activity (efficacy: 100% means all ticks are dead or moribund); for pest or weed control at 1 µg/cm2, 100 g/ha: application rate 1 μg/cm^2 (=100 g/ha); for pest or weed control at 5 µg/cm2, 500 g/ha: application rate 5 μg/cm^2 (=500 g/ha)
In short: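 Compound in acetone (9 mg/mL stock, diluted to test concentration) is coated onto inner walls of glass tubes by rotation for 2 h at 30 rpm. Efficacy is read after 48 h: ticks are tapped down and held on a 45-50° C plate for at most 5 min, and immotile or uncoordinated ones that fail to climb away count as dead or moribund.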

[10] = system: Aedes aegypti strain MONHEIM; assay: Aedes aegypti test (AEDSAE surface treatment & contact assay); conditions: surface concentration 20 mg/m^2, glazed tile, exposure 30 minutes, 24 hours after contact, read-out: efficacy (mortality)
In short: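 Compound dissolved in acetone (2 mg/ml) with 2000 ppm rapeseed oil methyl ester, pipetted onto glazed tile and dried. Adult mosquitoes exposed on the surface for 30 min; percent mortality scored 24 h after contact.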

[11] = system: Myzus persicae; assay: Myzus persicae spray test; conditions: in Brassica rapa, foliar, 120 h, read-out: activity (mortality), application rate 100 g/ha, spray, Chinese cabbage leaf disks, after 5 days
Procedure: as §1, with “Myzus persicae—Spray Test Solvent: 78.0 parts by weight acetone • 1.5 parts by weight dimethylformamide Emulsifier: alkylarylpolyglycol ether To” for “To”, “solvents” for “solvent,”, “and” for “and the concentrate”
Chinese cabbage (Brassica pekinensis) leaf disks infected with all instars of the green peach aphid (Myzus persicae), are sprayed with a preparation of the active ingredient of the desired concentration.
After 5 days mortality in % is determined. 100% means all aphids have been killed and 0% means none of the aphids have been killed.

[12] = system: Ctenocephalides felis; assay: Ctenocephalides felis in-vitro contact test, adult cat flea (CTECFE Cont); conditions: application rate 5 μg/cm^2 (=500 g/ha), adult cat fleas, after 48 hours, read-out: activity (efficacy: 100% means all fleas are dead or moribund)
Procedure: Ctenocephalides felis—In-Vitro Contact Tests Adult Cat Flea (CTECFE Cont)
9 mg compound is solved in 1 mL acetone and diluted with acetone to the desired concentration. 250 μL of the test solution is filled in 25 mL glass test tubes and homogeneously distributed on the inner walls by rotation and tilting on a shaking device (2 h at 30 rpm). With a compound concentration of 900 ppm, an inner surface of 44.7 cm^2 and a homogeneous distribution, a dose of 5 μg/cm^2 is achieved.
After the solvent has evaporated, each test tube is filled with 5-10 adult cat fleas (Ctenocephalides felis), closed with a perforated lid and incubated in a lying position at room temperature and relative humidity. After 48 hours efficacy is determined. The fleas are patted on the ground of the tubes and are incubated on a heating plate at 45-50° C. for at most 5 minutes. Immotile or uncoordinated moving fleas, which are not able to escape the heat by climbing upwards, are marked as dead or moribund.
An efficacy of 100% means all fleas are dead or moribund; 0% means no fleas are dead or moribund.

Row | Structure (SMILES) | mortality at 100 ppm [1] [%] | mortality at 4 ppm [2] [%] | pest or weed control at 5 µg/cm2 [3] [%] | mortality at 500 g/ha [4] [%] | mortality at 100 g/ha [5] [%] | mortality at 500 g/ha [5] [%] | mortality at 20 mg/m2 [6] [%] | pest or weed control at 0.004 mg [7] [%] | pest or weed control at 0.02 mg [7] [%] | pest or weed control at 32 µg/disc, 100 g/ha [8] [%] | pest or weed control at 160 µg/disc, 500 g/ha [8] [%] | pest or weed control at 1 µg/cm2, 100 g/ha [9] [%] | pest or weed control at 5 µg/cm2, 500 g/ha [9] [%] | mortality at 100 g/ha [4] [%] | mortality at 20 mg/m2 [10] [%] | mortality at 100 g/ha [11] [%] | mortality at 4 mg/m2 [6] [%] | pest or weed control at 5 µg/cm2 [12] [%]
1 | COc1nc([C@H](C)NC(=O)c2cc(C(F)(F)F)cc(C(F)(F)F)c2)n(-c2ccc(C#N)cn2)n1 [I-11] | 100 | 100 | 100 | 100 | 100 | 100 | 80 to 100 | 100 | 100 | 100 | 100 |  |  |  |  |  |  | 
2 | CC(C)c1nc([C@H](C)NC(=O)c2cc(Cl)nc(C(F)(F)F)c2)n(-c2ccc(C#N)cn2)n1 [I-28] | 100 | 90 | 100 |  | 100 |  | 80 to 100 | 100 | 100 | 100 |  | 100 | 100 | 90 |  |  |  | 
3 | C[C@H](NC(=O)c1cc(C(F)(F)F)cc(C(F)(F)F)c1)c1nc(C(C)(C)C)nn1-c1ccc(C#N)cn1 [I-37] |  |  | 100 |  | 100 |  | 80 to 100 | 100 | 100 | 100 |  | 100 | 100 | 100 | 80 to 100 | 90 | 80 to 100 | 
4 | COc1nc([C@H](C)NC(=O)c2cc(OC(F)F)cc(C(F)F)c2)n(-c2ccc(C#N)cn2)n1 [I-65] |  | 100 | 100 | 100 | 100 |  |  |  |  | 100 |  |  | 80 |  |  | 90 |  | 
5 | C[C@H](NC(=O)c1cc(Cl)cc(OC(F)(F)F)c1)c1ncnn1-c1ncc(Br)s1 [II-15, N-{(1S)-1-[1-(5-bromo-1,3-thiazol-2-yl)-1H-1,2,4-triazol-5-yl]ethyl}-3-chloro-5-(trifluoromethoxy)benzamide] | 100 |  | 100 | 90 |  | 100 | 80 to 100 | 100 | 100 | 100 | 100 |  |  |  |  |  |  | 80
6 | C[C@H](NC(=O)c1cc(Cl)cc(OC(F)(F)F)c1)c1ncnn1-c1ncc(I)s1 [II-21] | 100 |  | 100 | 90 |  | 100 | 80 to 100 | 100 | 100 | 100 | 100 |  |  |  |  |  | 80 to 100 | 80
7 | C[C@H](NC(=O)c1cc(Cl)cc(C(F)(F)F)c1)c1ncnn1-c1ccc(C(=O)N(CC(F)(F)F)C2CC2)cn1 [II-70] |  |  | 100 | 90 | 100 | 100 |  | 100 | 100 | 100 | 100 | 100 | 100 |  |  |  |  | 100
8 | C[C@H](NC(=O)c1cc(Cl)cc(C(F)(F)F)c1)c1ncnn1-c1ccc(C(=O)N(C)CC#N)cn1 [II-72] |  | 100 | 100 | 100 | 100 | 100 |  | 100 | 100 | 100 | 100 | 100 | 100 |  |  |  |  | 100
9 | COCCN(C)C(=O)c1ccc(-n2nc(C)nc2[C@H](C)NC(=O)c2cc(C(F)(F)F)cc(C(F)(F)F)c2)nc1 [II-98] | 100 | 100 | 100 |  | 83 |  |  | 100 |  |  |  | 100 | 100 |  |  | 90 |  | 
10 | Cc1nc([C@H](C)NC(=O)c2cc(Br)cc(OC(F)(F)F)c2)n(-c2cc(C#N)ccn2)n1 [II-106] | 100 | 100 | 100 |  | 100 |  |  | 100 |  | 100 |  | 100 | 100 |  |  | 90 |  | 90
